Activity calls are given as the source filed them.
Key:
[1] = biological target: Mitogen-activated protein kinase 10 (Homo sapiens, UniProt P53779); assay: Dose response biochemical screening assay for inhibitors of c-Jun N-Terminal Kinase 3 (JNK3). [Related pubchem assays: 746 ]
[2] = HEK-293T viability loss after treatment – luminescence, T-cell screen hits, cytotoxicity control for TCR NF-kB inhibitor project, dose response (AID 489026); format: functional, cell-based;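 further: cells exposed to compound about 14 hours before the viability readout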
Aminopeptidase N = biological target: T1, Aminopeptidase N (Plasmodium falciparum FcB1/Columbia, UniProt O96935); assay: malaria alanyl aminopeptidase activity blockers – biochemical, fluorogenic H-Leu-NHMec substrate, 1536-well (AID 1445); parameters: species or system Plasmodium falciparum 3D7, 3D7
T1 sequence (O96935 whole entry): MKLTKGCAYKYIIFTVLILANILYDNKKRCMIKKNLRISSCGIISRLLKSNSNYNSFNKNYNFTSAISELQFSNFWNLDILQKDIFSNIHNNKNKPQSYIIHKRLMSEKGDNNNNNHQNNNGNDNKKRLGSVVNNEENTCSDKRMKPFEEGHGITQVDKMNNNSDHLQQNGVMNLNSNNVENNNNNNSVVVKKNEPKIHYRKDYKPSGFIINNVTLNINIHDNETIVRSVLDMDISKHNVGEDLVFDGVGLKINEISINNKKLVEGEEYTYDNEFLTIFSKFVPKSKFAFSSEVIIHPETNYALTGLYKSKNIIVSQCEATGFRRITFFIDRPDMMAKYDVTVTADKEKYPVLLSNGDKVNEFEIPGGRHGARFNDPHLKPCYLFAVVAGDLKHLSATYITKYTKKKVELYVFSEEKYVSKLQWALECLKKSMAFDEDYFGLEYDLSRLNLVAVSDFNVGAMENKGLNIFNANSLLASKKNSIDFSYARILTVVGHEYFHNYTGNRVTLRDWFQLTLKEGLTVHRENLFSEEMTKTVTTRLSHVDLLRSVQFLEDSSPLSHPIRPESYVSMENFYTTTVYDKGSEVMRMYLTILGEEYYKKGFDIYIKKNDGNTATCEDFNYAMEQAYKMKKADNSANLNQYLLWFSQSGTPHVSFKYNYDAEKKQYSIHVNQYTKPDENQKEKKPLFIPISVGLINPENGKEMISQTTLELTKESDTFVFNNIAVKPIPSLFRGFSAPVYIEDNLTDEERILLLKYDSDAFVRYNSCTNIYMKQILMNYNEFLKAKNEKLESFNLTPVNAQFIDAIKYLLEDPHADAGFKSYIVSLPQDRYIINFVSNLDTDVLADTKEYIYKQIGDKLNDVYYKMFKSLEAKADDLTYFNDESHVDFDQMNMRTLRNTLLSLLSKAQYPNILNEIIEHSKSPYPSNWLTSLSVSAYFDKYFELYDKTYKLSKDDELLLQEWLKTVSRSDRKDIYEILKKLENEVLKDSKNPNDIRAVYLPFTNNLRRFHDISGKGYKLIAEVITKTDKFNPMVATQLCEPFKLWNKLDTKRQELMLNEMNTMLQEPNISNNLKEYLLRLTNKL

[3] = Luminescence Cell-Based Dose Response HTS to Identify Inhibitors of 5'UTR Stem-Loop Driven Prion Protein mRNA Translation in H4 Neuroglioblastoma Cells. [Related pubchem assays: 1827 (Project Summary), 1813 (Primary HTS)]; format: functional
[4] = DRD fibroblast viability loss – cell-based, non-viral oncogenic, luminescence, dose response (AID 1934); format: functional; details: Homo sapiens
[5] = luciferase reporter signal suppression in cells – H4 neuroglioma cells, luminescence, dose response (AID 1990); format: functional, cell-based
BJ [6] = assay: BJ-TERT-LT-ST fibroblast viability loss – cell-based, RAS-independent, luminescence, dose response (AID 1935); format: functional; details: Homo sapiens;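 further: BJ fibroblasts immortalized with TERT plus LT and ST oncogenes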
[7] = alpha-synuclein stem-loop luciferase translation blockers – H4 neuroglioma cells, luminescence, confirmation (AID 1988); format: functional, cell-based
BJ [8] = assay: cells; format: functional, cell-based; details: Homo sapiens
BJ [9] = assay: BJ-TERT fibroblast viability loss – cell-based, RAS-independent, luminescence, dose response (AID 1933); format: functional; details: Homo sapiens
[10] = Luminescence Cell-Based Dose Confirmation HTS to Identify Activators of 5'UTR Stem-Loop Driven Alpha-Synuclein mRNA Translation in H4 Neuroglioblastoma Cells. [Related pubchem assays: 1829 (Project Summary), 1814 (Primary HTS)]; format: functional
cells = format: functional
H4 = assay: Luminescence Cell-Based Dose Response HTS to Identify Activators of 5'UTR Stem-Loop Driven Prion Protein mRNA Translation in H4 Neuroglioblastoma Cells. [Related pubchem assays: 1829 (Project Summary), 1814 (Primary HTS)]; format: functional; details: Homo sapiens
[11] = THP-1 cell cytotoxicity, dose response, cytotoxicity control for non-replicating M. tuberculosis project (AID 489025); format: functional
[12] = Luminescence Cell-Based Dose Response HTS to Identify Activators of Luciferase Translation or Activity in H4 […] Cells. [Related pubchem assays: 1829 (Project Summary), 1814 (Primary HTS)]; format: functional
[13] = biological target: T2, Peroxisome proliferator-activated receptor gamma/Nuclear receptor coactivator 2 (Homo sapiens, UniProt P37231); assay: (§1) TR-FRET dose response biochemical High Throughput Screening assay for agonists of the steroid receptor coactivator 2 (SRC-2) recruitment by the peroxisome proliferator-activated receptor gamma (PPAR gamma): non-selective agonists. [Related pubchem assays: 1297, 1032 ]; format: functional
T2 sequence (P37231 whole entry): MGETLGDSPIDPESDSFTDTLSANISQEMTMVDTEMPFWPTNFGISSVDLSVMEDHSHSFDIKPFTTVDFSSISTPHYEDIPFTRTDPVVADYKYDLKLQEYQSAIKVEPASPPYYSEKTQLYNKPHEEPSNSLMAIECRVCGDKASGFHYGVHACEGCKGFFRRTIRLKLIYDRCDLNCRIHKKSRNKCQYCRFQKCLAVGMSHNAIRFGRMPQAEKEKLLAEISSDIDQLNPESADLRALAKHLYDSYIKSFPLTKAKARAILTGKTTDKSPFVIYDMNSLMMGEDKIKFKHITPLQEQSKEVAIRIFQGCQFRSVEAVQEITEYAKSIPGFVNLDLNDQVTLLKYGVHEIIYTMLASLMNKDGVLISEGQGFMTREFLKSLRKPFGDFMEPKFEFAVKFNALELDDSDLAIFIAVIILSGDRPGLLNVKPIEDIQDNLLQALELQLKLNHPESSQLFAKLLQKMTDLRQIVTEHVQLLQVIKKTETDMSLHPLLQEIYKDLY
T2 sequence (Q15596 whole entry, further chain): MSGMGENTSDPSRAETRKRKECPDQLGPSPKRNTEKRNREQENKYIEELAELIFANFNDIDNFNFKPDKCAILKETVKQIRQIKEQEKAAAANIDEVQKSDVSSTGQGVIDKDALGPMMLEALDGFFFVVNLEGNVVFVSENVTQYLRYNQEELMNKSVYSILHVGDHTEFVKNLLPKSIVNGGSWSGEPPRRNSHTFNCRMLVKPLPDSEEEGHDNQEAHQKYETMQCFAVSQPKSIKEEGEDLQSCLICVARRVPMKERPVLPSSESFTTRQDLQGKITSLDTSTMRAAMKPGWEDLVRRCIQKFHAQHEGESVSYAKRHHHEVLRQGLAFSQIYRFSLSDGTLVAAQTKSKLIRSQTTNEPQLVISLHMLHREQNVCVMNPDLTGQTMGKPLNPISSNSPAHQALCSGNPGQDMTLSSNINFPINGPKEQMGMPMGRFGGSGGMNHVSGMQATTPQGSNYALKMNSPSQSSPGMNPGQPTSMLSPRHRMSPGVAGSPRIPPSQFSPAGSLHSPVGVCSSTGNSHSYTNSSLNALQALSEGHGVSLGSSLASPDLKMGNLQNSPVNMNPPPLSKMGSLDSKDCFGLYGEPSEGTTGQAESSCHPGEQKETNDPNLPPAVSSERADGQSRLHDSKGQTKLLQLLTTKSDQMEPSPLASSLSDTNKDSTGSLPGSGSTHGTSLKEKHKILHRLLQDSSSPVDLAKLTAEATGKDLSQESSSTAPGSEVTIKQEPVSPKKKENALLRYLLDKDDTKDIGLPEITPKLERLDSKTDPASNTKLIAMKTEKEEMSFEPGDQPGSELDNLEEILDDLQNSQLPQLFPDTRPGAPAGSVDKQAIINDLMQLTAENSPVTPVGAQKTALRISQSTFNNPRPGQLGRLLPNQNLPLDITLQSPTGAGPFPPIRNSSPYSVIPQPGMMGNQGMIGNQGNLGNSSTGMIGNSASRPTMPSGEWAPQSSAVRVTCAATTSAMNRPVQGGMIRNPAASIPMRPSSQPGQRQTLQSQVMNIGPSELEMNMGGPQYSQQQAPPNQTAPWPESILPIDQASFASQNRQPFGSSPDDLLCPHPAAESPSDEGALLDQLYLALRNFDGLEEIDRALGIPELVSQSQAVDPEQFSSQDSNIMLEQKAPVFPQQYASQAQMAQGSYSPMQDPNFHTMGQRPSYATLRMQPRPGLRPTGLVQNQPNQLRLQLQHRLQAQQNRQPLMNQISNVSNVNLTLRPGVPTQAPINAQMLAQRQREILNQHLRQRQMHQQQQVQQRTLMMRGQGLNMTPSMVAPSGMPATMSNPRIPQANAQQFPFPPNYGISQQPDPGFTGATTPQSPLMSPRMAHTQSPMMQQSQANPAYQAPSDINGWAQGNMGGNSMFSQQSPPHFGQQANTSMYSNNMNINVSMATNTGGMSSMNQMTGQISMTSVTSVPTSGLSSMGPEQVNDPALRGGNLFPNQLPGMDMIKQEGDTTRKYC

[14] = biological target: T3, Peroxisome proliferator-activated receptor gamma/Nuclear receptor coactivator 1 (Homo sapiens, UniProt P37231); assay: as §1, with “1 (SRC-1)” for “2 (SRC-2)”, “assays (depositor defined):AID1300, AID1808, AID504735, AID631]” for “assays: 1297, 1032 ]”; format: protein assay
[15] = biological target: T4, Peroxisome proliferator-activated receptor gamma/Nuclear receptor coactivator 3 (Homo sapiens, UniProt P37231); assay: as §1, with “3 (SRC-3)” for “2 (SRC-2)”, “1301 (Confirmation screen.), 1048 (Primary screen.)]” for “1297, 1032 ]”; format: functional
T4 sequence (P37231 whole entry): as the sequence (P37231 whole entry) above
T4 sequence (Q9Y6Q9 whole entry, further chain): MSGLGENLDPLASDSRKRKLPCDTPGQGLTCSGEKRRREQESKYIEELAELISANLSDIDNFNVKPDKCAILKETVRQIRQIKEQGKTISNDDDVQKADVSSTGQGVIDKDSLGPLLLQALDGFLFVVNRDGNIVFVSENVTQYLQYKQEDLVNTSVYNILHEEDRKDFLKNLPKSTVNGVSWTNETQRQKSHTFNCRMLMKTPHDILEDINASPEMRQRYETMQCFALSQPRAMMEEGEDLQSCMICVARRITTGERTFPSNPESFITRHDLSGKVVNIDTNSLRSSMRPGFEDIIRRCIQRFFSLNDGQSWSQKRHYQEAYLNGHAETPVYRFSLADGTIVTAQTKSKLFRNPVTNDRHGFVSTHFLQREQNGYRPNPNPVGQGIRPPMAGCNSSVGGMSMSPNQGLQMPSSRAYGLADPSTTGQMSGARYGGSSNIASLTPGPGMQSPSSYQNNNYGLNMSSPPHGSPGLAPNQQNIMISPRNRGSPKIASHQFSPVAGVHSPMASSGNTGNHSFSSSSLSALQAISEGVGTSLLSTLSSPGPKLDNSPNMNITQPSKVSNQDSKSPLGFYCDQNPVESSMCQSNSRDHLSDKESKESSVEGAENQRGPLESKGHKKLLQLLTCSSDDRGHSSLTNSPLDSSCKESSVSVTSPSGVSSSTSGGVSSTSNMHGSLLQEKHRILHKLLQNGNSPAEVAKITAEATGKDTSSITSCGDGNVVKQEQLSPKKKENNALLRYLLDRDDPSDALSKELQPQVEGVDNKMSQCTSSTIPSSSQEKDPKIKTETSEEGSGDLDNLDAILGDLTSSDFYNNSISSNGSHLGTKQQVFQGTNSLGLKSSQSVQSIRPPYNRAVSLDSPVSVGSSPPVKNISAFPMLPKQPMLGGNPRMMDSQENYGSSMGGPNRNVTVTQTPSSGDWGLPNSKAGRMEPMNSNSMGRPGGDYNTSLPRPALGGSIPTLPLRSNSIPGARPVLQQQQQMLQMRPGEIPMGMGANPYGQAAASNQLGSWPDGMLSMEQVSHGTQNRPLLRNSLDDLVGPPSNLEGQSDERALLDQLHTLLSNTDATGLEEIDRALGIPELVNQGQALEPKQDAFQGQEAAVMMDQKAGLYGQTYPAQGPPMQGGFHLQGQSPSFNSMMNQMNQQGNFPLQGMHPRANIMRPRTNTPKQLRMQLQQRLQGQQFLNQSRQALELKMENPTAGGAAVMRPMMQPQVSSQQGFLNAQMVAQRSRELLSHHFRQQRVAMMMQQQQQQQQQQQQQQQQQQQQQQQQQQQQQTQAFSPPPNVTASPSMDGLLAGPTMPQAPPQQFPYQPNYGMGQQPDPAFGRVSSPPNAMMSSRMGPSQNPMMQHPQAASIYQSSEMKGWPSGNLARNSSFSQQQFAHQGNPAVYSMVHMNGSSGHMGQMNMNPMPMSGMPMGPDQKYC

Cytochrome P450 2C19 = Cytochrome P450 2C19 (Homo sapiens, UniProt P33261); assay: Cytochrome panel assay with activity outcomes. Panel member name: p450-cyp2c19 Compounds with AC50 equal or less than 10 uM are considered active; format: functional
Chain of Cytochrome P450 2C19 (P33261 whole entry): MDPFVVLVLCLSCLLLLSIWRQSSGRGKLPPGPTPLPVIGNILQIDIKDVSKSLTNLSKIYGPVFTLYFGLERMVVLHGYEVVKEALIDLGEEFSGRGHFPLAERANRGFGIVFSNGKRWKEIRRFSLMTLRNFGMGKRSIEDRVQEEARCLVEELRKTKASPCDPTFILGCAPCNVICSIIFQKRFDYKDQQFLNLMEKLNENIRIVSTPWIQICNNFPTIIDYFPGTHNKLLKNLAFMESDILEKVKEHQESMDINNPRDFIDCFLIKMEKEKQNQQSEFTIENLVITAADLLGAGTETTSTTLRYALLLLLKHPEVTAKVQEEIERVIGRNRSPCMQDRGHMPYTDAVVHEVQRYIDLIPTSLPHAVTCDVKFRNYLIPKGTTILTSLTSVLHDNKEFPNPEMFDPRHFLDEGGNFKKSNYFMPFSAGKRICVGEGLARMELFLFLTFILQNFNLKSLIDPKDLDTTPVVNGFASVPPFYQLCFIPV

[16] = HIV-1 Vif–A3G interaction blockers – biochemical, TR-FRET, GST-Vif 1-94, biotin-A3G peptide, dose response retest, primary screen (AID 1117319); format: functional;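 further: TR-FRET signal of purified GST-Vif binding a biotinylated A3G peptide; inhibitors lower the FRET signal by blocking Vif and A3G binding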
[17] = biological target: T5, Short transient receptor potential channel 4 (Mus musculus, UniProt Q9QUQ5); assay: calcium entry via TRPC4 opening agents – cell-based, HEK293 TRPC4/mu-opioid, Fluo-4 calcium, dose response (AID 434937); format: functional
T5 sequence (Q9QUQ5 whole entry): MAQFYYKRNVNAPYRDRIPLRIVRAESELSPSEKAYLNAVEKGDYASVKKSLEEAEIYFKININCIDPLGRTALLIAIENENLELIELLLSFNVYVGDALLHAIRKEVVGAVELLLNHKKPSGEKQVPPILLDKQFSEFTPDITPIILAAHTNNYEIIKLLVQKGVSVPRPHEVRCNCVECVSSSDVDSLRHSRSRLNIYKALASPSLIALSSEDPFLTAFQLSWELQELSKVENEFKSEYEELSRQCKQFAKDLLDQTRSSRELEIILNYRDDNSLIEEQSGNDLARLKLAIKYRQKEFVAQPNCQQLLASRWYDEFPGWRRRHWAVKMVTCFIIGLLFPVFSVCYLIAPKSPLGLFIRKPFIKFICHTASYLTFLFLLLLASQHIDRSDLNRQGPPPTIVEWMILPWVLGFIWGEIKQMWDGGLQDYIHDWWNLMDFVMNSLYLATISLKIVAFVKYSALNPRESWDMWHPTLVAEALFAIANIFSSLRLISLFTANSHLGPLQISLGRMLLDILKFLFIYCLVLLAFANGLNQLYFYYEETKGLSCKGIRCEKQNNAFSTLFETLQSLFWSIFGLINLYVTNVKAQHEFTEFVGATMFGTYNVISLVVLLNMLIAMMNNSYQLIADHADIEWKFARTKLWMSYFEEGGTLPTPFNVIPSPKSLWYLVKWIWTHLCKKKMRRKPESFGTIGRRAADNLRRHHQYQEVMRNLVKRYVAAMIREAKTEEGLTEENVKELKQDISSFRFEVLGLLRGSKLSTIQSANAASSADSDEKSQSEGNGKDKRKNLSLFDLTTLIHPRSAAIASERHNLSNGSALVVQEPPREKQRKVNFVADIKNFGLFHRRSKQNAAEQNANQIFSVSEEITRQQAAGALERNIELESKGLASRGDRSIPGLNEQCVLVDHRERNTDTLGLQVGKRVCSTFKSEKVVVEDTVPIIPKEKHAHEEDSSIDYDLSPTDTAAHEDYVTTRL

[18] = biological target: T3, Peroxisome proliferator-activated receptor gamma/Nuclear receptor coactivator 1; format: functional
[19] = biological target: T2, Peroxisome proliferator-activated receptor gamma/Nuclear receptor coactivator 2; format: functional
[20] = biological target: T4, Peroxisome proliferator-activated receptor gamma/Nuclear receptor coactivator 3; format: functional
[21] = biological target: T6, Ubiquitin-conjugating enzyme E2 N (Homo sapiens, UniProt P61088); format: functional
T6 sequence (P61088 whole entry): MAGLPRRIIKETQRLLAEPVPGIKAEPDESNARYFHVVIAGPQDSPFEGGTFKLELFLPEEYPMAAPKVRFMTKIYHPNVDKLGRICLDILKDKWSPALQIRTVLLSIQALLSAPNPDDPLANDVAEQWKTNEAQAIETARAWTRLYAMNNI

Bcl-2-related protein A1 = biological target: T7, Bcl-2-related protein A1 (Mus musculus, UniProt Q07440); format: functional;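 further: confirmatory dose–response counterscreen on Bfl-1, used to check hits from a UBC13 polyubiquitin inhibitor campaign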
T7 sequence (Q07440 whole entry): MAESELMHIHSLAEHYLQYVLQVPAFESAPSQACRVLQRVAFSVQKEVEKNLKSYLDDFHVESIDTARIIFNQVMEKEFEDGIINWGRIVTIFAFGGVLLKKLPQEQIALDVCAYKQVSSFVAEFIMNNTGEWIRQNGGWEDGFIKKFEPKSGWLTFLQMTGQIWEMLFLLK

[22] = biological target: T6, Ubiquitin-conjugating enzyme E2 N; format: functional; remark: listed apart in the source

Chain of Mitogen-activated protein kinase 10 (P53779 whole entry): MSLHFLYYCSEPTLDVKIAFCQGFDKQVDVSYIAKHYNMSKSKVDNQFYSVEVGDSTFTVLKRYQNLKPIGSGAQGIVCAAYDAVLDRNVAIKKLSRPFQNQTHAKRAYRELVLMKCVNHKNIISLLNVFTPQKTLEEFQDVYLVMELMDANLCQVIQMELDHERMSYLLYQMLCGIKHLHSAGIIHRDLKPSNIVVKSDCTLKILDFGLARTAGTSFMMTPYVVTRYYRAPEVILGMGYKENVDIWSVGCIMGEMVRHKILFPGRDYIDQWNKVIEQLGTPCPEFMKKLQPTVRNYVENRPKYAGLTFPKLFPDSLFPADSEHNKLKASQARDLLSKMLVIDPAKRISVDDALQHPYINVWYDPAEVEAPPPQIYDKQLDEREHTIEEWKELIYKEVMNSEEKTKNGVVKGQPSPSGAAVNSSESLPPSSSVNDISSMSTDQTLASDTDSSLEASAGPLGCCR

SMILES: COc1ccc(COC(=O)c2[nH]nc3ccccc23)cc1F
- IC50 [1]: 11.4 µM (not active)

SMILES: CCCc1cc(C(=O)Nc2cc(C)ccc2O)no1
- IC50 [2]: > 80 µM (inactive)

SMILES: C=C(C)c1cccc(C(C)(C)NC(=O)Nc2ccc(C)cn2)c1
- IC50 (Aminopeptidase N): 41.3 µM (active)

SMILES: Cc1cccc(N2CCN(C(=O)c3c(-c4ccccc4)noc3C)CC2)c1C
- EC50 [3]: 17.1 µM (active)
- EC50 [4]: 2.58 µM (active)
- EC50 [5]: 10.9 µM (active)
- EC50 (BJ [6]): 2.67 µM (active)
- EC50 [7]: 6.76 µM (active)
- EC50 (BJ [8]): 89.6 µM (active)
- EC50 (BJ [9]): 4.1 µM (active)
- IC50 [2]: > 80 µM (inactive)

SMILES: COc1cc2c(cc1OC)CN(C(=O)c1ccc([N+](=O)[O-])o1)CC2
- EC50 [10]: 11.6 µM (active)
- IC50 (cells): 0.14 µM (active)
- EC50 (H4): > 120 µM (not active)
- CC50 [11]: > 40 µM (active)
- EC50 [12]: 37.5 µM (active)

SMILES: Cn1cc(Cl)c(-c2nnc(S)n2-c2ccccc2)n1
- EC50 [13]: > 79.4 µM (not active)
- EC50 [14]: > 79.4 µM (inactive)
- EC50 [15]: > 79.4 µM (not active)

SMILES: COc1ccc(NC(=O)C2C3C=CC(C3)C2C(=O)NCc2ccco2)c(OC)c1 (stereo not given)
- IC50 (Aminopeptidase N): 89.2 µM (active)

SMILES: Cc1sc(NC(=O)c2ccccc2)c(C(=O)NCCN(C)C)c1C
- AC50 (Cytochrome P450 2C19): inconclusive
- IC50 [16]: > 100 µM (active)
- EC50 [17]: 3.35 µM (active)

SMILES: CC(C)CNC(=O)COC(=O)c1ccccc1OCC(=O)Nc1ccc(Br)cc1
- EC50 [18]: > 79.4 µM (not active)
- EC50 [19]: > 79.4 µM (not active)
- EC50 [20]: > 79.4 µM (not active)

SMILES: CCN(CC)CCOC(=O)c1ccc(NC(=O)c2cn(-c3ccccc3)nc2-c2cccs2)cc1
- IC50 [21]: 8.78 µM (active)
- IC50 (Bcl-2-related protein A1): > 20 µM (inactive)
- IC50 [22]: > 20 µM (inactive)

SMILES: NC(=O)N/N=C\c1cc(Br)ccc1O
- IC50 (Aminopeptidase N): 50.6 µM (active)
